Experimental data as given in PMC12514245, “Impaired migration and lung invasion of human melanoma by a novel small molecule targeting the transmembrane domain of death receptor p75^NTR” (EMBO Molecular Medicine, 2025).
Values joined by “and” are separate entries in the source; they are usually repeats but may differ in a detail not shown here. Identical values can stand only once.

Test system: A875 shp75 cells
Assay: Wound healing cell motility assay, A875 shp75
Type: cell-based, human
Details: for Wound area, Mean: N=3
Experimental: For wound healing assay, cells were grown until confluency and subjected to a wound across the cell mono-layer. Cells were then incubated with serum-free media either with DMSO or a small molecule (with or without 5 µM Q_VD_poH) and imaged at specific time-points. Cell migration is reflected as fold change in wound area over time.

[1] = 5μM Q_VD_poH + 10μM Div17E5, 0 hours
[2] = 5μM Q_VD_poH + 10μM Div17E5, 3 hours
[3] = 5μM Q_VD_poH + 10μM Div17E5, 6 hours
[4] = 5μM Q_VD_poH + 10μM Div17E5, 9 hours
[5] = 5μM Q_VD_poH + 10μM Div17E5, 12 hours
[6] = 5μM Q_VD_poH + 10μM Div17E5, 15 hours
[7] = 5μM Q_VD_poH + 10μM Div17E5, 18 hours
[8] = 5μM Q_VD_poH + 10μM Div17E5, 21 hours
[9] = 5μM Q_VD_poH + 10μM Div17E5, 24 hours

Oc1ccc(-c2cncc(Nc3ccc(Br)c(Cl)c3)n2)cc1 [Div17E5]
wound closure: did not significantly affect wound closure | Wound area, n1-n3 [1]: 0.989 Fold and 0.886 Fold and 1.125 Fold | Wound area, Mean [1]: 1.000 Fold | Wound area, n1-n3 [2]: 0.947 Fold and 0.979 Fold and 1.007 Fold | Wound area, Mean [2]: 0.978 Fold | Wound area, n1-n3 [3]: 0.959 Fold and 0.975 Fold and 0.953 Fold | Wound area, Mean [3]: 0.962 Fold | Wound area, n1-n3 [4]: 0.955 Fold and 0.965 Fold and 0.942 Fold | Wound area, Mean [4]: 0.954 Fold | Wound area, n1-n3 [5]: 0.935 Fold and 0.950 Fold and 0.940 Fold | Wound area, Mean [5]: 0.941 Fold | Wound area, n1-n3 [6]: 0.901 Fold and 0.902 Fold and 0.903 Fold | Wound area, Mean [6]: 0.902 Fold | Wound area, n1-n3 [7]: 0.849 Fold and 0.823 Fold | Wound area, Mean [7]: 0.840 Fold | Wound area, n1-n3 [8]: 0.828 Fold and 0.801 Fold and 0.783 Fold | Wound area, Mean [8]: 0.804 Fold | Wound area, n1-n3 [9]: 0.790 Fold and 0.822 Fold and 0.793 Fold | Wound area, Mean [9]: 0.801 Fold | Wound area, n1-n3 (10μM Div17E5, 0 hours): 1.039 Fold and 1.010 Fold and 0.951 Fold | Wound area, Mean (10μM Div17E5, 0 hours): 1.000 Fold | Wound area, n1-n3 (10μM Div17E5, 3 hours): 0.987 Fold and 0.961 Fold and 0.970 Fold | Wound area, Mean (10μM Div17E5, 3 hours): 0.973 Fold | Wound area, n1-n3 (10μM Div17E5, 6 hours): 0.982 Fold and 0.933 Fold and 0.919 Fold | Wound area, Mean (10μM Div17E5, 6 hours): 0.945 Fold | Wound area, n1-n3 (10μM Div17E5, 9 hours): 0.959 Fold and 0.914 Fold and 0.881 Fold | Wound area, Mean (10μM Div17E5, 9 hours): 0.918 Fold | Wound area, n1-n3 (10μM Div17E5, 12 hours): 0.961 Fold and 0.889 Fold and 0.887 Fold | Wound area, Mean (10μM Div17E5, 12 hours): 0.912 Fold | Wound area, n1-n3 (10μM Div17E5, 15 hours): 0.930 Fold and 0.849 Fold and 0.852 Fold | Wound area, Mean (10μM Div17E5, 15 hours): 0.877 Fold | Wound area, n1-n3 (10μM Div17E5, 18 hours): 0.858 Fold and 0.787 Fold and 0.795 Fold | Wound area, Mean (10μM Div17E5, 18 hours): 0.813 Fold | Wound area, n1-n3 (10μM Div17E5, 21 hours): 0.855 Fold and 0.772 Fold and 0.767 Fold | Wound area, Mean (10μM Div17E5, 21 hours): 0.798 Fold | Wound area, n1-n3 (10μM Div17E5, 24 hours): 0.867 Fold and 0.765 Fold and 0.792 Fold | Wound area, Mean (10μM Div17E5, 24 hours): 0.808 Fold | Wound area (Fold) (A875 shp75, 1uM, 0 h, Mean): 1.000 Fold | Wound area (Fold) (A875 shp75, 1uM, 0 h, n1): 0.980 Fold | Wound area (Fold) (A875 shp75, 1uM, 0 h, n2): 1.053 Fold | Wound area (Fold) (A875 shp75, 1uM, 0 h, n3): 0.966 Fold | Wound area (Fold) (A875 shp75, 1uM, 3 h, Mean): 0.957 Fold | Wound area (Fold) (A875 shp75, 1uM, 3 h, n1): 0.947 Fold | Wound area (Fold) (A875 shp75, 1uM, 3 h, n2): 0.963 Fold | Wound area (Fold) (A875 shp75, 1uM, 3 h, n3): 0.960 Fold | Wound area (Fold) (A875 shp75, 1uM, 6 h, Mean): 0.921 Fold | Wound area (Fold) (A875 shp75, 1uM, 6 h, n1): 0.914 Fold | Wound area (Fold) (A875 shp75, 1uM, 6 h, n2): 0.924 Fold | Wound area (Fold) (A875 shp75, 1uM, 6 h, n3): 0.923 Fold | Wound area (Fold) (A875 shp75, 1uM, 9 h, Mean): 0.898 Fold | Wound area (Fold) (A875 shp75, 1uM, 9 h, n1): 0.889 Fold | Wound area (Fold) (A875 shp75, 1uM, 9 h, n2): 0.905 Fold | Wound area (Fold) (A875 shp75, 1uM, 9 h, n3): 0.901 Fold | Wound area (Fold) (A875 shp75, 1uM, 12 h, Mean): 0.873 Fold | Wound area (Fold) (A875 shp75, 1uM, 12 h, n1): 0.869 Fold | Wound area (Fold) (A875 shp75, 1uM, 12 h, n2): 0.870 Fold | Wound area (Fold) (A875 shp75, 1uM, 12 h, n3): 0.881 Fold | Wound area (Fold) (A875 shp75, 1uM, 15 h, Mean): 0.847 Fold | Wound area (Fold) (A875 shp75, 1uM, 15 h, n1): 0.839 Fold | Wound area (Fold) (A875 shp75, 1uM, 15 h, n2): 0.841 Fold | Wound area (Fold) (A875 shp75, 1uM, 15 h, n3): 0.861 Fold | Wound area (Fold) (A875 shp75, 1uM, 18 h, Mean): 0.821 Fold | Wound area (Fold) (A875 shp75, 1uM, 18 h, n1): 0.821 Fold | Wound area (Fold) (A875 shp75, 1uM, 18 h, n2): 0.823 Fold | Wound area (Fold) (A875 shp75, 1uM, 18 h, n3): 0.820 Fold | Wound area (Fold) (A875 shp75, 1uM, 21 h, Mean): 0.792 Fold | Wound area (Fold) (A875 shp75, 1uM, 21 h, n1): 0.780 Fold | Wound area (Fold) (A875 shp75, 1uM, 21 h, n2): 0.797 Fold | Wound area (Fold) (A875 shp75, 1uM, 21 h, n3): 0.800 Fold | Wound area (Fold) (A875 shp75, 1uM, 24 h, Mean): 0.773 Fold | Wound area (Fold) (A875 shp75, 1uM, 24 h, n1): 0.775 Fold | Wound area (Fold) (A875 shp75, 1uM, 24 h, n2): 0.773 Fold | Wound area (Fold) (A875 shp75, 1uM, 24 h, n3): 0.771 Fold | Wound area (Fold) (A875 shp75, 2uM, 0 h, Mean): 1.000 Fold | Wound area (Fold) (A875 shp75, 2uM, 0 h, n1): 1.055 Fold | Wound area (Fold) (A875 shp75, 2uM, 0 h, n2): 0.891 Fold | Wound area (Fold) (A875 shp75, 2uM, 0 h, n3): 1.054 Fold | Wound area (Fold) (A875 shp75, 2uM, 3 h, Mean): 0.908 Fold | Wound area (Fold) (A875 shp75, 2uM, 3 h, n1): 0.882 Fold | Wound area (Fold) (A875 shp75, 2uM, 3 h, n2): 0.921 Fold | Wound area (Fold) (A875 shp75, 2uM, 3 h, n3): 0.922 Fold | Wound area (Fold) (A875 shp75, 2uM, 6 h, Mean): 0.857 Fold | Wound area (Fold) (A875 shp75, 2uM, 6 h, n1): 0.826 Fold | Wound area (Fold) (A875 shp75, 2uM, 6 h, n2): 0.869 Fold | Wound area (Fold) (A875 shp75, 2uM, 6 h, n3): 0.877 Fold | Wound area (Fold) (A875 shp75, 2uM, 9 h, Mean): 0.836 Fold | Wound area (Fold) (A875 shp75, 2uM, 9 h, n1): 0.818 Fold | Wound area (Fold) (A875 shp75, 2uM, 9 h, n2): 0.854 Fold | Wound area (Fold) (A875 shp75, 2uM, 9 h, n3): 0.836 Fold | Wound area (Fold) (A875 shp75, 2uM, 12 h, Mean): 0.798 Fold | Wound area (Fold) (A875 shp75, 2uM, 12 h, n1): 0.793 Fold | Wound area (Fold) (A875 shp75, 2uM, 12 h, n2): 0.807 Fold | Wound area (Fold) (A875 shp75, 2uM, 12 h, n3): 0.794 Fold | Wound area (Fold) (A875 shp75, 2uM, 15 h, Mean): 0.786 Fold | Wound area (Fold) (A875 shp75, 2uM, 15 h, n1): 0.790 Fold | Wound area (Fold) (A875 shp75, 2uM, 15 h, n2): 0.776 Fold | Wound area (Fold) (A875 shp75, 2uM, 15 h, n3): 0.791 Fold | Wound area (Fold) (A875 shp75, 2uM, 18 h, Mean): 0.750 Fold | Wound area (Fold) (A875 shp75, 2uM, 18 h, n1): 0.749 Fold | Wound area (Fold) (A875 shp75, 2uM, 18 h, n2): 0.742 Fold | Wound area (Fold) (A875 shp75, 2uM, 18 h, n3): 0.760 Fold | Wound area (Fold) (A875 shp75, 2uM, 21 h, Mean): 0.731 Fold | Wound area (Fold) (A875 shp75, 2uM, 21 h, n1): 0.738 Fold | Wound area (Fold) (A875 shp75, 2uM, 21 h, n2): 0.705 Fold | Wound area (Fold) (A875 shp75, 2uM, 21 h, n3): 0.751 Fold | Wound area (Fold) (A875 shp75, 2uM, 24 h, Mean): 0.700 Fold | Wound area (Fold) (A875 shp75, 2uM, 24 h, n1): 0.699 Fold | Wound area (Fold) (A875 shp75, 2uM, 24 h, n2): 0.661 Fold | Wound area (Fold) (A875 shp75, 2uM, 24 h, n3): 0.739 Fold
